Assay results: patent publication US9737610B2 (priority 2010, dated 2017)
“Also recorded” adds a separate entry of the source.

Legend:
[1] = Dog pharmacokinetics of API, amorphous and solid dispersion capsules, cross-over; design: species or system male beagle dogs; conditions: male, beagle, in vivo, po, 2200 mg
Method: Presented herein are dog pharmacokinetics (PK) studies comparing various forms of rifaximin. […] In the SD dosage form, the polymer used was HPMC-AS at a drug to polymer ratio of 50:50. The formulation also comprised pluronic F127 and crosscarmellose sodium (see Example 4). […] Blood was collected at timed intervals for 24 h after dosage administration, and plasma was harvested for LC-MS/MS analysis.

[2] = Physical stability assessment at 60° C./dry for 7 d (PLM); assay type: physicochemical; conditions: after 60° C./dry for 7 d
From the text: Each of the samples remained as irregular aggregates without birefringence/extinctions after stressed at this condition for 7 days.

[3] = Physical stability assessment in 0.1N HCl at 37° C. (PLM); assay type: physicochemical
Method: For the assessment of physical stability for samples in a 0.1N HCl solution maintained at 37° C., observations were made and microscopy images were acquired using polarized light at different time points including 0, 6 and 24 hrs, as summarized in Table 6. Based on the absence of birefringent particles when samples were observed by PLM, dispersions prepared with HPMC-AS HG and HPMC-AS MG display the highest physical stability under this particular stress condition.

[4] = Physical stability assessment at 40° C./75% RH for 7 d (PLM, mDSC); assay type: physicochemical; conditions: after 40° C./75% RH for 7 d
Method: Each of the samples remained as irregular aggregates without birefringence/extinctions after stressed at 40° C./75% RH condition for 7 days. […] All of samples display a single apparent Tg at approximately 148° C.

in vivo = conditions: dog, po, 2200 mg

AUCINF_obs, mean [1]	AUC_0-24, mean [1]	AUClast, mean [1]	Cmax, mean [1]	half-life ([1]; Half-life, geometric mean)	Tmax ([1]; Tmax, median)	PLM results [2]	PLM results ([3]; 24 hrs)	time at which crystallization (birefringence/extinctions) was observed ([3]; PLM)	PLM results ([3]; time 0)	PLM results [4]	AUC (in vivo)	AUC(0-inf) (in vivo)	Cmax (in vivo)	Tmax (in vivo)	Half-life, geometric mean [1]	Tmax [1]	mean exposure (AUCinf) as compared with API [1]	Compound	PLM results ([3]; 6 hrs)
104 ng·h/mL	82 ng·h/mL	81 ng·h/mL	44.93 ng/mL	419 min	1 h	–	–	–	–	–	–	–	–	–	–	–	–	CO[C@H]1/C=C/O[C@@]2(C)Oc3c(C)c(O)c4c(O)c(c5c(nc6cc(C)ccn65)c4c3C2=O)NC(=O)/C(C)=C\C=C\[C@H](C)[C@H](O)[C@@H](C)[C@@H](O)[C@@H](C)[C@H](OC(C)=O)[C@@H]1C [API, Rifaximin]	–
–	–	–	–	–	–	agg., irr., no B/E	agg., no B/E + a few B/E particles	6 h	agg., irr., no B/E	agg., irr., no B/E	–	–	–	–	–	–	–	CO[C@H]1/C=C/O[C@@]2(C)Oc3c(C)c(O)c4c(O)c(c5c(nc6cc(C)ccn65)c4c3C2=O)NC(=O)/C(C)=C\C=C\[C@H](C)[C@H](O)[C@@H](C)[C@@H](O)[C@@H](C)[C@H](OC(C)=O)[C@@H]1C [(100:0) Rifaximin-only, Rifaximin]	clear view of B/E particles; also recorded: agg., no B/E + a few B/E particles
4027 ng·h/mL	3908 ng·h/mL	3908 ng·h/mL	–	–	–	–	–	–	–	–	3910 ng·h/mL	4030 ng·h/mL	1390 ng/mL	2 h	5.88 h	1 h	~40 fold	CO[C@H]1/C=C/O[C@@]2(C)Oc3c(C)c(O)c4c(O)c(c5c(nc6cc(C)ccn65)c4c3C2=O)NC(=O)/C(C)=C\C=C\[C@H](C)[C@H](O)[C@@H](C)[C@@H](O)[C@@H](C)[C@H](OC(C)=O)[C@@H]1C [amorph, Rifaximin]	–
